Laboratory results as given in EP0326640B1, “(1R,5S,6S)-2-substituted thio-6 (R)-1-hydroxyethyl -1-methyl-carbapenem - carboxylic acid derivatives” (LEDERLE (JAPAN) LTD., priority 1987, dated 1989).
Values after ≈ are worked out from the molar mass of the structure shown. Read-outs that look alike come from different tables or passages of the source.

Columns and labels:
[1] = tested on: Morganella morganii IFO3848; test: Antibacterial test, agar plate dilution method (MIC), standard strains; format: cell-based; details: Morganella morganii, IFO3848, 18 h, MH agar, 37°C, read-out: MIC
Experimental: (§1) The antibacterial activities were tested by an agar plate dilution method in accordance with the standard method of The Japanese Chemotherapy Society [Chemotherapy, Vol. 29, 76-79 (1981)].
(§2) A Mueller-Hinton (MH) agar liquid medium of a test microorganism was cultured overnight at 37°C and the resultant culture medium was diluted with a buffered saline gelatin (BSG) solution to contain approximately 10⁶ cells of the test microorganisms per milliliter, and then the diluted solution was inoculated with a microplanter at the rate of approximately 5 microliters on a MH agar medium containing a test compound. This medium was then incubated at 37°C for 18 hours. The minimum inhibitory concentration (MIC) is determined as a minimum concentration in which no test microorganism could grow. It is noted here that the test organisms used were all standard strains.

[2] = tested on: Proteus mirabilis IFO3849; test: as above; format: cell-based; details: Proteus mirabilis, IFO3849, 18 h
Experimental: as §1, §2

Proteus vulgaris OX-19 = test: as above; format: cell-based; details: Proteus vulgaris, OX19, 18 h
Experimental: as §1, §2

[3] = tested on: Pseudomanas aeruginosa NCTC 10940; test: as above; format: cell-based; details: 18 h, MH agar, 37°C, read-out: MIC
Experimental: as §1, §2

[4] = tested on: Providencia rettgeri IFO 3850; test: as above; format: cell-based; details: Providencia rettgeri, IFO3850, 18 h, MH agar, 37°C, read-out: MIC
Experimental: as §1, §2

[5] = tested on: Pseudomonas aeruginosa IFO 3445; test: as above; format: cell-based; details: IFO3445, MH agar, 37°C, 18 hours, read-out: MIC
Experimental: as §1, §2

[6] = tested on: Serratia marcescens IAM1184; test: as above; format: cell-based; details: MH agar, 37°C
Experimental: as §1, §2

[7] = tested on: Salmonella paratyphi 1015; test: as above; format: cell-based; details: Salmonella enterica, MH agar, 37°C, 18 hours, read-out: MIC
Experimental: as §1, §2

[8] = tested on: Salmonella schottmuelleri 8006; test: as above; format: cell-based; details: MH agar, 37°C, 18 hours, read-out: MIC
Experimental: as §1, §2

Salmonella typhi 901 = test: as above; format: cell-based; details: Salmonella enterica, TYPHI, 18 h, MH agar, 37°C
Experimental: as §1, §2

[9] = tested on: Salmonella enteritidis G14; test: as above; format: cell-based; details: Salmonella enterica, MH agar, 37°C
Experimental: as §1, §2

Proteus vulgaris HX-19 = test: as above; format: cell-based; details: Proteus vulgaris, HX19, 18 h
Experimental: as §1, §2

[10] = target: T1, Swine Kidney Dehydropeptidase-I (DHP-I) (Sus scrofa, UniProt P22412); test: Stability of test compounds against DHP-I by HPLC; format: in vitro ADME; details: 37°C, Substrate Concentration: 100 μM
T1 construct: made soluble by treatment with butanol and purified by the ammonium sulfate fraction method, thereby producing DHP-I enzyme from a 75% ammonium sulfate fraction; from tissue; host or cells: swine kidney
T1 sequence (P22412 17-384): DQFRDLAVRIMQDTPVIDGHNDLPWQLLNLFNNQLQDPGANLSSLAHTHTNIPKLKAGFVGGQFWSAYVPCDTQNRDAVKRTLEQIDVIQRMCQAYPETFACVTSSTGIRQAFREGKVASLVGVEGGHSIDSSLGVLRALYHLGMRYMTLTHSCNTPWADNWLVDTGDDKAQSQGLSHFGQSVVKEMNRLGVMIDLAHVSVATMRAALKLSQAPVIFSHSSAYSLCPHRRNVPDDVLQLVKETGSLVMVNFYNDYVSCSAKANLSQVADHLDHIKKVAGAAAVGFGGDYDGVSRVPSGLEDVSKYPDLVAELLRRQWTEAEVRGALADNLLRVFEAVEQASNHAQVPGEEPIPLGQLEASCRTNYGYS
Experimental: The swine kidney (8 kg) was homogenized and the enzyme protein was allowed to precipitate. After a connective lipid was removed with acetone, the resultant material was made soluble by treatment with butanol and purified by the ammonium sulfate fraction method, thereby producing DHP-I enzyme from a 75% ammonium sulfate fraction. The DHP-I enzyme was then adjusted to give an enzyme concentration of 25 mg/10 ml (phosphate buffer, pH 7.1), and divided into 1 ml portions. The portions were frozen and stored at -40°C or less until use. Crystalline compound (20) obtained in Example 11 and amorphous compound (14) obtained in Example 5 below were used as a test compound. The test compound was adjusted in situ to give a concentration of 117 µM with a 50 mM sodium phosphate buffer solution (pH =7.1). Glycyl dehydrophenylalanine (Gl-dh-Ph) and imipenem were employed as control compounds, and they were adjusted in situ each to give a concentration of 117 µM with the same sodium phosphate buffer solution. The test compound according to the present invention and the control compounds were treated in substantially the same manner as (1) above. The incubation, however, was conducted at 37°C for 4.5 hours or for 24 hours. The degree of hydrolysis of the compounds each after the test periods was measured by the HPLC method.

[11] = tested on: P. aeruginosa resistant strains; test: Sensitivity test against clinical isolates, agar plate dilution method; format: cell-based; details: 54 strains of P. aeruginosa having an anti-Pseudomonas resistance
Experimental: The test procedures were based on the agar plate dilution method in accordance with the standard method of The Japanese Chemotherapy Society. The minimum inhibitory concentration (MIC) was determined in substantially the same manner as the test procedures II above using the 54 strains of P. aeruginosa having an anti-Pseudomonas resistance.

SMILES | MIC [1] [µg/mL] | MIC ([2]; Proteus mirabilis IFO3849, MH agar, 37°C, 18 hours, read-out: MIC) [µg/mL] | MIC (Proteus vulgaris OX-19) [µg/mL] | MIC [3] [µg/mL] | MIC [4] [µg/mL] | MIC [5] [µg/mL] | MIC ([6]; 18 hours) [µg/mL] | MIC [7] [µg/mL] | MIC [8] [µg/mL] | MIC (Salmonella typhi 901) [µg/mL] | MIC ([9]; ENTERITIDIS, 18 h) [µg/mL] | MIC (Proteus vulgaris HX-19) [µg/mL] | MIC [2] [µg/mL] | MIC ([6]; Serratia marcescens, IAM1184, 18 h, read-out: MIC) [µg/mL] | MIC ([9]; 18 hours, read-out: MIC) [µg/mL] | DEGREES OF HYDROLYSIS BY DHP-I ([10]; 4.5 hours) [µM] | DEGREES OF HYDROLYSIS BY DHP-I ([10]; 24 hours) | concentration to inhibit the growth of all the test microorganisms [11] [µg/mL] | percent of strains inhibited at 6.25 µg/mL ([11]; concentration of 6.25 µg/ml, read-out: test microorganisms whose growth is inhibited) [%]
C[C@@H](O)[C@H]1C(=O)N2C(C(=O)[O-])=C(SCc3cs[n+](C)n3)[C@H](C)[C@H]12 [Amorphous Compd. (14), (1R,5S,6S)-2-[(2-methyl-1,2,3-thiadiazolium-4-yl)methyl]thio-6-[(R)-1-hydroxyethyl]-1-methyl-carbapenem-3-carboxylate] | 0.39 (≈ 1.1 µM) | 6.25 (≈ 17.6 µM) | 1.56 (≈ 4.39 µM) | 0.39 (≈ 1.1 µM) | 0.05 (≈ 0.141 µM) | 0.39 (≈ 1.1 µM) | 0.2 (≈ 0.563 µM) | 1.56 (≈ 4.39 µM) | 0.39 (≈ 1.1 µM) | 0.025 (≈ 0.0703 µM) | 1.56 (≈ 4.39 µM) | 1.56 (≈ 4.39 µM) |  |  |  |  |  |  | 
C[C@@H](O)[C@H]1C(=O)N2C(C(=O)O)=C(SCCN=CN)C[C@H]12 [Imipenem, imipenem] | 0.39 (≈ 1.3 µM) |  | 1.56 (≈ 5.21 µM) | 0.78 (≈ 2.61 µM) | 0.78 (≈ 2.61 µM) | 0.78 (≈ 2.61 µM) |  | 1.56 (≈ 5.21 µM) | 0.78 (≈ 2.61 µM) | 0.1 (≈ 0.334 µM) |  | 1.56 (≈ 5.21 µM) | 6.25 (≈ 20.9 µM) | 0.39 (≈ 1.3 µM) | 0.78 (≈ 2.61 µM) | 77.6 | * After 24 hours at 37°C, it has been found that most or all imipenem has been decomposed and nothing remained was detected. | 12.5 | ~98
